This note sets out measurements from patent publication US20080312209A1, “Piperazine Heteroaryl Derivatives as Gpr38 Agonists” (Glaxo Group Limited, priority 2005, published 2008).

Assay [1] addresses T1, hGPR38R (Homo sapiens, UniProt O43193). Put plainly: GPR38 FLIPR functional agonist assay. Type of assay: cell-based. More on the design: expressed in transfected cells. Conditions: HEK-293 cells stably expressing the GPR38 receptor, agonist response, Fluo-4 fluorescence. Here is the method: The potencies and efficacies of the compounds of this invention for GPR^38 can be determined by FLIPR assay performed on the human cloned receptor as described herein. It has been found, using the FLIPR functional assay, that compounds of formula (I) appear to be partial or full agonists of the GPR38 receptor.
GPR38FLIPR Functional Agonist Assay Protocol
HEK-293 cells stably expressing the GPR38 receptor were seeded (10,000 cells/well) into poly-D-lysine coated 384-well black-wall, clear-bottom microtitre plates (Becton Dickinson) 24 h prior to assay. On day of assay, cells were washed (×2) with 80 ul of assay buffer (Hanks Balanced Salts Solution (HBSS), 10 mM HEPES, 200 μM Ca^2+, 2.5 mM probenecid) using the EMBLA cell washer. After the final wash, buffer was aspirated to leave a residual volume of 30 ul on the cells. Cells were loaded with 1 μM (final) Fluo-4-AM fluorescent indicator dye (TefLabs) in assay buffer, (20 ul loading solution added to each well using the Multidrop). Plates were incubated for 1 h at 37° C., before being washed (×3) with 80 ul assay buffer using the EMBLA cell washer; 30 ul residual being left after the final wash. Plates were then assayed on a Fluorometric Imaging Plate Reader (FLIPR, Molecular Devices). Test compounds were prepared in assay buffer without probenecid, but containing 0.03% CHAPS. In the FLIPR, 10 ul of test compound was added to the cells and changes in fluorescence measured over a 2 min timeframe. Maximum change in fluorescence over baseline was used to determine agonist response and concentration response curves were constructed, using a 4-parameter logistic equation.
(§1) The following alternative procedure may also be used:
HEK-293 cells stably expressing the GPR38 receptor were seeded (30,000 cells/100 ul growth media/well) into poly-D-lysine coated 96-well black-wall, clear-bottom microtitre plates (Corning) 24 hours prior to assay. On the day of assay the cells were loaded with 2 μM (final) Fluo-4-AM fluorescent indicator dye (Molecular Probes) and 1 mM (final) probenicid in assay buffer (145 mM sodium chloride, 2.5 mM potassium chloride, 10 mM Hepes, 10 mM glucose, 1.2 mM magnesium chloride, 1.5 mM calcium chloride and 0.1% BSA) (50 ul loading solution added to each well). Plates were incubated for 1 hour at 25° C., before being washed 4 times with 100 ul assay buffer using the EMBLA cell washer; 150 ul residual being left after the final wash. The cells were then incubated at 25° C. for 20 minutes and the plates were then assayed on a Fluorometric Imaging Plate Reader (FLIPR, Molecular Devices). Test compounds were prepared in assay buffer without probenecid. In the FLIPR, 50 ul of test compound was added to the cells and changes in fluorescence measured over a 2 minute timeframe. Maximum change in fluorescence over baseline was used to determine agonist response and concentration response curves were constructed, using a 4-parameter logistic equation.
Target sequence in this assay (O43193 whole entry): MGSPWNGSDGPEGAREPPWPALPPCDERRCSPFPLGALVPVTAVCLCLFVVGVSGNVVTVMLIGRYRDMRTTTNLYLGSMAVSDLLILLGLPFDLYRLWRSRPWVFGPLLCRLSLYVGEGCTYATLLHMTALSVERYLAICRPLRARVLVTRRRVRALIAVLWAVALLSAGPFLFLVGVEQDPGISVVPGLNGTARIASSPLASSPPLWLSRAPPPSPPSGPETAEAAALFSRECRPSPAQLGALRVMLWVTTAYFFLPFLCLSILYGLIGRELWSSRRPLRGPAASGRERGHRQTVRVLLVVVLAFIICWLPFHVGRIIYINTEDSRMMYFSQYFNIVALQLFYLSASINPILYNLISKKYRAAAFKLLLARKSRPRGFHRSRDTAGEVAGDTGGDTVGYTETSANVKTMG

Assay [2] has as its target T1, hGPR38R. Put plainly: GPR38 GTPγS functional agonist assay. The format is biochemical. More on the design: expressed in transfected cells; host or cells: HEK293 (transient transfection; P2 membrane fractions). As to the method: The potencies and intrinsic activities of the compounds of this invention can also be determined according to the [35S]GTPγS functional assay which is described herein. It has been found, using the [35S]GTPγS functional assay, that compounds of formula (I) appear to be partial or full agonists of the GPR38 receptor.
GPR38GTPγS Functional Agonist Assay Protocol
For each compound being assayed, in an Opti clear bottom 96 well plate, is added:—
(a) 20 μl of test compound (or 10 μl of guanosine 5′-triphosphate (GTP) as non-specific binding control) diluted to required concentration in assay buffer (20 mM N-2-Hydroxyethylpiperazine-N′-2-ethanesulfonic acid (HEPES)+100 mM NaCl+10 mM MgCl2, pH adjusted to 7.4 with NaOH); (b) 60 μl bead/membrane/GDP mix prepared by suspending wheat germ agglutinin-polyvinyltoluene (WGA-PVT) scintillation proximity assay (SPA) beads at 100 mg/ml in assay buffer followed by mixing with membrane (prepared in accordance with the methodology described above) and diluting in assay buffer to give a final volume of 60 μl which contains 10 μg protein and 0.5 mg bead per well—mixture is pre-mixed at 4° C. for 30 min on a roller and just prior to addition to the plate, 10 μM final concentration of guanosine 5′ diphosphate (GDP—diluted in assay buffer) is added; (c) 20 μl guanosine 5′ [γ35-S]thiotriphosphate, triethylamine salt (Amersham; radioactivity concentration=37 kBq/μl or 1 mCi/ml; Specific Activity 1160 Ci/mmol) diluted to 1.9 nM in assay buffer to give 0.38 nM final.
The plate is incubated on a shaker at 25° C. for 30 min followed by centrifugation for 5 min at 1500 rpm. The plate is read between 3 and 6 h after completion of centrifuge run in a Wallac Microbeta counter on a 1 min normalised tritium count protocol. Data is analysed using a 4-parameter logistic equation. Basal activity used as minimum.
as §1
Target sequence in this assay (O43193 whole entry): as above
Target sequence in this assay (P09471 2-354 partner limits assumed): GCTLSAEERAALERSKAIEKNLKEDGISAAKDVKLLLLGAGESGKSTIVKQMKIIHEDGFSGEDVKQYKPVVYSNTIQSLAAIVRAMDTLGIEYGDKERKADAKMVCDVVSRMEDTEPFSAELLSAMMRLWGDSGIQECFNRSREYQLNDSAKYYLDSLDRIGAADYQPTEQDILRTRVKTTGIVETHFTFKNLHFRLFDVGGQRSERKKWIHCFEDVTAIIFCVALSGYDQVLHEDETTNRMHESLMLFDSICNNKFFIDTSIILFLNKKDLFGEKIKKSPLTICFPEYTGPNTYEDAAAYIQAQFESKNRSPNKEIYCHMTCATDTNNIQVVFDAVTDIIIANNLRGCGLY
Target sequence in this assay (P62873 2-340 partner limits assumed): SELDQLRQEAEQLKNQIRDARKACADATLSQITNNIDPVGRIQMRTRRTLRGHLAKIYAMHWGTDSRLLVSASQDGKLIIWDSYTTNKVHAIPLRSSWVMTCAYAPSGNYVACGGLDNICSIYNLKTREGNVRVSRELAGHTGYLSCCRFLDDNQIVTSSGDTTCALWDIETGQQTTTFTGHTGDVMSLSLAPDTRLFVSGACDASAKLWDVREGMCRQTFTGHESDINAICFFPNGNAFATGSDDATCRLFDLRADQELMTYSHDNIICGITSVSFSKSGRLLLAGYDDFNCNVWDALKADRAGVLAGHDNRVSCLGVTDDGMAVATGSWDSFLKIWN
Target sequence in this assay (P59768 2-68 partner limits assumed): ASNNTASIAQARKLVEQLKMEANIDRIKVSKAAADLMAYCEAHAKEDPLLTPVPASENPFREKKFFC
Membranes are derived from bulk cell cultures of HEK293 cell lines transiently transfected with hGPR38R and Go G-protein. P2 membranes fractions are prepared, aliquoted and stored at −80° C.
For each compound being assayed, the following is added into a white Greiner 384 well plate:—
(a) 1 μl of test compound diluted to required concentration in DMSO. (b) 20 μl bead/membrane/Saponin/GDP mix prepared as follows;—suspension of LEADseeker wheat germ agglutinin (WGA) scintillation proximity assay (SPA) beads at 25 mg/ml in assay buffer (20 mM N-2-Hydroxyethylpiperazine-N′-2-ethanesulfonic acid (HEPES)+100 mM NaCl+10 mM MgCl2, pH adjusted to 7.4 with KOH) containing saponin at 150 ug/ml. Mixing of bead suspension with membranes at 500 ug/ml (prepared in accordance with the methodology described above) and diluting in assay buffer to give a final volume of 20 μl which contains 5 μg protein and 0.25 mg bead per well.
Mixture is pre-mixed for 30 minutes on a roller and just prior to addition to the plate, 3 μM final assay concentration of guanosine 5′ diphosphate (GDP) (diluted in assay buffer) is added.
(c) 25 μl guanosine 5′ [γ35-S]thiotriphosphate, triethylamine salt (Amersham; radioactivity concentration=37 kBq/μl or 1 mCi/ml; Specific Activity 1160 Ci/mmol) diluted to 0.6 nM in assay buffer to give 0.33 nM final assay concentration.
The plate is then spun for 2 minutes at 1500 rpm and then incubated at room temperature for 4 hours. The plate is then read on a Viewlux Plux (Perkin Elmer). Data is analysed using a 4-parameter logistic equation.

Where [3] appears, read: read-out: pEC50 in the FLIPR assay (converted).
Setting [4] is: [35S]GTPγS SPA, HEK293 membranes with hGPR38R and Go G-protein, read-out: pEC50 in the GTPγS assay (converted).

Structures are written as SMILES. Counter-ions that a name gives are not always drawn.

As for `C[C@@H]1CN(Cc2ccc(-c3cccnc3CN(C)C(=O)CCc3ccc(F)cc3)cc2)C[C@H](C)N1` [Example 3, N-{[3-(4{[(3R,5S)-3,5-Dimethyl-1-piperazinyl]methyl}phenyl)-2-pyridinyl]methyl}-3-(4-fluorophenyl)-N-methylpropanamide], the EC50 at hGPR38R [1] (setting [3]) is below 316 nM; at hGPR38R [2] (setting [4]), below 3.16 µM.
Regarding `C[C@@H]1CN(Cc2ccc(-n3ccnc3C(=O)N3CCC(Nc4ccc(F)cc4)CC3)cc2)C[C@H](C)N1` [Example 22, 1 {[1-(4-{[(3R,5S)-3,5-Dimethyl-1-piperazinyl]methyl}phenyl)-1H-imidazol-2-yl]carbonyl}-N-(4-fluorophenyl)-4-piperidinamine], the EC50 on hGPR38R [1] (pEC50 in the FLIPR assay) was below 316 nM; on hGPR38R [2], below 3.16 µM.
Taken in the same sequence, the figures for `C[C@@H]1CN(Cc2ccc(-n3ccnc3C(=O)N3CCC(Nc4cccc(F)c4)CC3)cc2)C[C@H](C)N1` [Example 21, 1-{[1-(4-{[(3R,5S)-3,5-Dimethyl-1-piperazinyl]methyl}phenyl)-1H-imidazol-2-yl]carbonyl}-N-(3-fluorophenyl)-4-piperidinamine] were below 316 nM and below 3.16 µM.
The corresponding values for `COc1cc(-c2cccnc2C(=O)N2CCC(Nc3ccc(F)cc3)CC2)ccc1CN1C[C@@H](C)N[C@@H](C)C1` [Example 17] are below 316 nM and below 3.16 µM.
With `C[C@@H]1CN(Cc2ccc(-c3cccnc3C(=O)N3CCC(Nc4ccc(F)cc4)C3)cc2)C[C@H](C)N1` (stereo partly drawn) [Example 16, 1-{[3-(4-{[(3R,5S)-3,5-dimethyl-1-piperazinyl]methyl}phenyl)-2-pyridinyl]carbonyl}-N-(4-fluorophenyl)-3-pyrrolidinamine], the EC50 at hGPR38R [1] (setting [3]) was below 316 nM; at hGPR38R [2] (setting [4]) it was below 3.16 µM.
Take `C[C@H]1CN(Cc2ccc(-c3cccnc3C(=O)N3CCC(Nc4ccc(F)cc4)CC3)cc2)CCN1` [Example 8, N-(4-Fluorophenyl)-1-{[3-(4-{[(3S)-3-methyl-1-piperazinyl]methyl}phenyl)-2-pyridinyl]carbonyl}-4-piperidinamine]: the results for the EC50 on hGPR38R [1] (pEC50 in the FLIPR assay) and at hGPR38R [2] were below 316 nM and below 3.16 µM, respectively.
Taken in the same sequence, the figures for `C[C@@H]1CN(Cc2ccc(-c3cccnc3C(=O)N3CCC(Nc4ccc(F)cc4)CC3)cc2F)C[C@H](C)N1` [Example 9, 1-{[3-(4-{[(3R,5S)-3,5-dimethyl-1-piperazinyl]methyl}-3-fluorophenyl)-2-pyridinyl]carbonyl}-N-(4-fluorophenyl)-4-piperidinamine] were below 316 nM and below 3.16 µM.
In the case of `C[C@@H]1CN(Cc2ccc(-c3cccnc3C(=O)N3CCC(Nc4cccc(F)c4)CC3)cc2F)C[C@H](C)N1` [Example 11, 1-{[3-(4-{[(3R,5S)-3,5-dimethyl-1-piperazinyl]methyl}-3-fluorophenyl)-2-pyridinyl]carbonyl}-N-(3-fluorophenyl)-4-piperidinamine], the EC50 at hGPR38R [1] (pEC50 in the FLIPR assay) was below 316 nM; on hGPR38R [2], below 3.16 µM.
Consider `C[C@@H]1CN(Cc2ccc(-c3cccnc3C(=O)N3CCC(Sc4ccc(Cl)cc4)CC3)cc2F)C[C@H](C)N1` [Example 13, (3R,5S)-1-({4-[2-({4-[(4-chlorophenyl)thio]-1-piperidinyl}carbonyl)-3-pyridinyl]-2-fluorophenyl}methyl)-3,5-dimethylpiperazine], for which the EC50 on hGPR38R [1] (setting [3]) was below 316 nM; at hGPR38R [2] (setting [4]), below 3.16 µM.
Taken in the same sequence, the figures for `C[C@@H]1CN(Cc2ccc(-c3cccnc3C(=O)N3CCC(Nc4cccc(C#N)c4)CC3)cc2)C[C@H](C)N1` [Example 29, 3-[(1-{[3-(4-{[(3R,5S)-3,5-dimethyl-1-piperazinyl]methyl}phenyl)-2-pyridinyl]carbonyl}-4-piperidinyl)amino]benzonitrile] were below 316 nM and below 3.16 µM.
For `C[C@H]1CN(Cc2ccc(-c3cccnc3C(=O)N3CCC(Nc4cccc(F)c4)CC3)cc2)CCN1` [Example 14, N-(3-fluorophenyl)-1-{[3-(4-{[(3S)-3-methyl-1-piperazinyl]methyl}phenyl)-2-pyridinyl]carbonyl}-4-piperidinamine], the EC50 on hGPR38R [1] (pEC50 in the FLIPR assay) was below 316 nM; on hGPR38R [2] it was below 3.16 µM.
Turning to `C[C@@H]1CN(Cc2ccc(-c3cccnc3S(=O)(=O)N3CCC(Nc4ccccc4F)CC3)cc2F)C[C@H](C)N1` [Example 20, 1-{[3-(4-{[(3R,5S)-3,5-Dimethyl-1-piperazinyl]methyl}-3-fluorophenyl)-2-pyridinyl]sulfonyl}-N-(2-fluorophenyl)-4-piperidinamine], the EC50 at hGPR38R [1] (setting [3]) is below 1000 nM; on hGPR38R [2] (setting [4]) it was below 3.16 µM.
Take `Cc1nc(CN(C)C(=O)CCc2ccc(F)cc2)c(-c2ccc(CN3C[C@@H](C)N[C@@H](C)C3)cc2)s1` [Example 6, N-{[5-(4-{[(3R,5S)-3,5-Dimethyl-1-piperazinyl]methyl}phenyl)-2-methyl-1,3-thiazol-4-yl]methyl}-3-(4-fluorophenyl)-N-methylpropanamide dihydrochloride]: the EC50 on hGPR38R [1] (setting [3]) is below 316 nM; at hGPR38R [2] (setting [4]), below 3.16 µM.
Turning to `C[C@@H]1CN(Cc2ccc(-c3cccnc3C(=O)N3CCC(Nc4ccccc4F)CC3)cc2)C[C@H](C)N1` [Example 31, 1-{[3-(4-{[(3R,5S)-3,5-dimethyl-1-piperazinyl]methyl}phenyl)-2-pyridinyl]carbonyl}-N-(2-fluorophenyl)-4-piperidinamine], the EC50 at hGPR38R [1] (pEC50 in the FLIPR assay) was below 1000 nM; on hGPR38R [2], below 3.16 µM.
